Laboratory results taken from publication PMC10518255, “A first-in-class pan-lysyl oxidase inhibitor impairs stromal remodeling and enhances gemcitabine response and survival in pancreatic cancer” (Nature Cancer, 2023).
“And” between values parts separate entries of the source, which are not always exact repeats. Equal values may be shown once.

Tests used:
pMLC2 = test: Immunohistochemistry of end-point KPC tumors: stromal regions; format: in vivo, mouse; settings: for Quantification of pMLC2 positive staining in stromal regions: Extended Data 6D, KPC tumours at endpoint, individual FOV
Experimental: (§1) All tissues or matrices, including patient TMAs, were fixed in 10% buffered formalin and embedded in paraffin. The 4-μm sections of samples were deparaffinized with xylene and rehydrated in graded ethanol washes. For immunohistochemistry, Bond Dewax Solution (AR9222) was used. Antigen retrieval was performed using Bond RX H2(30) protocol: HIER 30 min ER1 (citrate pH 6) OR ER2 (EDTA pH 9) at 100 °C. Slides were quenched in BOND Polymer Refine Detection (Leica Biosystems DS9800). […] Slides were digitized on an Aperio slide scanner and representative areas per tumor acquired and analyzed by researchers blinded to the conditions of the experiment.
(§2) Extended Data Fig. 6 PXS-5505 in combination with gemcitabine in a KPC model. a. Quantification of proliferating cells (Ki67 positive nuclear staining) in KPC tumors at end point, treated as indicated. 5 fields of view (500 μm × 500 μm) per mouse and 10 mice per cohort were scored. […] Quantification of percent coverage of αSMA positive staining in KPC tumors at end point, treated as indicated. 3 fields of view (1000 μm × 1000 μm) per mouse and 10 mice per cohort were scored. […] Quantification of percent coverage of PDGFR-ß positive staining in KPC tumors at end point, treated as indicated. 3 fields of view (1000 μm × 1000 μm) per mouse and 10 mice per cohort were scored. […] Quantification of pMLC2 positive staining in stromal regions of KPC tumors at end point, treated as indicated. 3 fields of view (500 μm × 500 μm) per mouse and 10 mice per cohort were scored. […] Quantification of tumor vasculature (CD31 positive staining) in KPC tumors at end point, treated as indicated. 3 fields of view (1000 μm × 1000 μm) per mouse and 10 mice per cohort were scored. […] Quantification of STAT3 activation (pSTAT3 positive nuclear staining) in KPC tumors at end point, treated as indicated. 3 fields of view (1000 μm × 1000 μm) per mouse and 5 mice per cohort were scored. […] Scale bars = 100 μm. g Quantification of macrophage infiltration (F4/80 positive staining) in KPC tumors at end point, treated as indicated. […]

PDGFR-β = test: Immunohistochemistry of end-point KPC tumors: panCAF marker; format: in vivo, mouse; settings: for Percent coverage of PDGFR-ß positive staining: Extended Data 6C, KPC tumours at endpoint, individual FOV
Experimental: as §1, §2

| SMILES | Quantification of pMLC2 positive staining in stromal regions (pMLC2) | pMLC2 in stromal regions (pMLC2; KPC tumors at end point) | Percent coverage of PDGFR-ß positive staining (PDGFR-β) | PDGFR-β positivity (PDGFR-β; KPC tumors at end point) |
| --- | --- | --- | --- | --- |
| Nc1ccn([C@@H]2O[C@H](CO)[C@@H](O)C2(F)F)c(=O)n1 [Gem, gemcitabine] | 92.08 and 84.2 and 87.45 and 82.3 and 82.92 and 94.71 and 90.49 and 43.06 and 73.39 and 39.68 and 25.28 and 42.05 and 30.69 and 23.6 and 44.73 and 91.07 and 86.73 and 81.83 and 77.4 and 63.11 and 93.35 and 65.58 and 88.53 and 67.95 and 49 and 89.81 and 73.17 and 62.17 and 93.12 and 52.2 | increased pMLC2 | 7.4938% and 2.1875% and 12.1122% and 4.282% and 6.095% and 3.1691% and 15.1145% and 8.8619% and 8.0756% and 17.8714% and 24.3073% and 20.1172% and 13.2929% and 10.304% and 12.3137% and 10.967% and 18.634% and 4.9424% and 8.9111% and 7.7908% and 2.017% and 14.5457% and 8.9344% and 10.6658% and 5.631% and 1.6247% and 8.4484% and 0.5673% and 1.2057% and 0.8465% | small decreases in positivity |
| Cl.Cl.NC/C=C(\F)CS(=O)(=O)c1cccc2cccnc12.O [PXS-5505, (Z)-3-fluoro-4-(quinolin-8-ylsulfonyl)but-2-en-1-amine dihydrochloride monohydrate] | 16.71 and 49.28 and 7.302 and 93.81 and 91.78 and 78.97 and 53.28 and 54.73 and 45.61 and 13.2 and 20.93 and 42.23 and 36.07 and 17.51 and 40.83 and 47.04 and 47.28 and 39.88 and 19.03 and 15.52 and 73.22 and 64.14 and 60.07 and 90.97 and 8.8 and 20.91 and 61.66 and 4.245 and 28.34 and 17.54 |  | 6.765% and 8.3993% and 2.8629% and 12.2376% and 9.6982% and 4.3212% and 4.8524% and 9.496% and 7.1445% and 8.9357% and 7.1025% and 17.1234% and 12.5648% and 3.0699% and 20.4926% and 2.5465% and 8.2725% and 3.1151% and 4.1221% and 5.7763% and 4.8975% and 4.1951% and 11.8569% and 14.757% and 1.2435% and 4.7314% and 2.3407% and 3.9912% and 1.8413% and 6.5811% |  |
